Data: patent US20240247015A1, “PHOSPHORUS DERIVATIVES AS NOVEL SOS1 INHIBITORS” (BAYER AKTIENGESELLSCHAFT, priority 2021, published 2024)

What follows are compounds tested against interaction of human SOS1 (SOS1) with human K-RasG12C (Homo sapiens (Human), UniProt Q07889) (assay: Biochemical assay: hK-RasG12C interaction assay with hSOS1 (HTRF)). Settings: GST-hK-RasG12C with His-hSOS1, 60 min incubation at 20° C., mean, read-out: K-RasG12C - SOS interaction assay IC50 (mean).
Type: binding
How it was run: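 Compounds, duplicates at 11 concentrations from 0.073 nM to 20 µM, were preincubated 2 min with 10 nM GST-hK-RasG12C, then 20 nM His-hSOS1 was added, all at 20 °C. After 60 min, 665/620 nm HTRF ratio normalized to DMSO and SOS1-free controls; IC50 by 4-parameter fit.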

interaction of human SOS1 (SOS1) with human K-RasG12C, sequence (Q07889 564-1049 limits assumed): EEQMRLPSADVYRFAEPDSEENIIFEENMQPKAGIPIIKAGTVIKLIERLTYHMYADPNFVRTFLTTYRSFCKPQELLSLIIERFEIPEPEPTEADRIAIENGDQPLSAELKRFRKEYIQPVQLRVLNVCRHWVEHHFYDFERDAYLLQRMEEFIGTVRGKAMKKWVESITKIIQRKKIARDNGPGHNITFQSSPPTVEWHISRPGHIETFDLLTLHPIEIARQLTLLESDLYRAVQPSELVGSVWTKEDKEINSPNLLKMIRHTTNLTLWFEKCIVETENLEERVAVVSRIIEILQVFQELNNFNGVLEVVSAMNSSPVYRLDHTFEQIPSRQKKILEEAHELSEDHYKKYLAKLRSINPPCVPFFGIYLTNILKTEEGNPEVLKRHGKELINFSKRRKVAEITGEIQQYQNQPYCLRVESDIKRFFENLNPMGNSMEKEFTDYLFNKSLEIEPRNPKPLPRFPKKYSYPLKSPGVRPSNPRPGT

IC50	SMILES
37 nM	COCC(F)(F)c1cccc([C@@H](C)Nc2nc(C)nc3cnc(P4(=O)CCCC4)cc23)c1F [Example 93, 1-[4-{{(1R)-1-[3-(1,1-difluoro-2-methoxyethyl)-2-fluorophenyl]ethyl}amino)-2-methylpyrido[3,4-d]pyrimidin-6-yl]-1lambda^5-phospholan-1-one]
46.5 nM	COCC(F)(F)c1cccc([C@@H](C)Nc2nc(C)nc3cnc(P(C)(C)=O)cc23)c1F [Example 94, N-{(1R)-1-[3-(1,1-difluoro-2-methoxyethyl)-2-fluorophenyl]ethyl}-6-(dimethylphosphoryl)-2-methylpyrido[3,4-d]pyrimidin-4-amine]
23.9 nM	Cc1nc(N[C@H](C)c2cc(N)cc(C(F)(F)F)c2)c2cc(P3(=O)CCCC3)ncc2n1 [Example 95, 1-[4-{{(1R)-1-[3-amino-5-(trifluoromethyl)phenyl]ethyl}amino)-2-methylpyrido[3,4-d]pyrimidin-6-yl]-1lambda^5-phospholan-1-one]
50.2 nM	CCP(=O)(CC)c1cc2c(N[C@H](C)c3cccc(C(F)(F)F)c3C)nc(C)nc2cn1 [Example 96, 6-(diethylphosphoryl)-2-methyl-N-{(1R)-1-[2-methyl-3-(trifluoromethyl)phenyl]ethyl}pyrido[3,4-d]pyrimidin-4-amine]
13.6 nM	Cc1nc(N[C@H](C)c2cc(N)cc(C(F)(F)F)c2)c2cc(P(C)(C)=O)ncc2n1 [Example 97, N-{(1R)-1-[3-amino-5-(trifluoromethyl)phenyl]ethyl}-6-(dimethylphosphoryl)-2-methylpyrido[3,4-d]pyrimidin-4-amine]
139 nM	Cc1nc(N[C@H](C)c2cccc(C(F)(F)F)c2C)c2cc(P(=O)(C(C)C)C(C)C)ncc2n1 [Example 98, 6-[di(propan-2-yl)phosphoryl]-2-methyl-N-{(1R)-1-[2-methyl-3-(trifluoromethyl)phenyl]ethyl}pyrido[3,4-d]pyrimidin-4-amine]
32.1 nM	Cc1nc(N[C@H](C)c2cccc(C(F)(F)F)c2C)c2cc(P3(=O)CCCC3)ncc2n1 [Example 99, 1-[2-methyl-4-{{(1R)-1-[2-methyl-3-(trifluoromethyl)phenyl]ethyl}amino)pyrido[3,4-d]pyrimidin-6-yl]-1lambda^5-phospholan-1-one]
4.89 nM	Cc1nc(N[C@H](C)c2cccc(C(F)(F)F)c2C)c2cc(P3(=O)CCCC3)c(C)nc2n1 [Example 100, 1-[2,7-dimethyl-4-{{(1R)-1-[2-methyl-3-(trifluoromethyl)phenyl]ethyl}amino)pyrido[2,3-d]pyrimidin-6-yl]-1lambda^5-phospholan-1-one]
17.5 nM	COc1nc2nc(C)nc(N[C@H](C)c3cccc(C(F)(F)F)c3C)c2cc1P(C)(C)=O [Example 101, 6-(dimethylphosphoryl)-7-methoxy-2-methyl-N-{(1R)-1-[2-methyl-3-(trifluoromethyl)phenyl]ethyl}pyrido[2,3-d]pyrimidin-4-amine]
80.2 nM	Cc1nc(N[C@H](C)c2cccc(C(F)(F)F)c2C)c2cc(P(=O)(C(C)C)C(C)C)c(C)nc2n1 [Example 102, 6-[di(propan-2-yl)phosphoryl]-2,7-dimethyl-N-{(1R)-1-[2-methyl-3-(trifluoromethyl)phenyl]ethyl}pyrido[2,3-d]pyrimidin-4-amine]
14.2 nM	CCP(=O)(CC)c1cnc2nc(C)nc(N[C@H](C)c3cccc(C(F)(F)C(C)(C)O)c3F)c2c1 [Example 103, 1-{3-[(1R)-1-{[6-(diethylphosphoryl)-2-methylpyrido[2,3-d]pyrimidin-4-yl]amino}ethyl]-2-fluorophenyl}-1,1-difluoro-2-methylpropan-2-ol]
18.8 nM	Cc1nc(N[C@H](C)c2cccc(C(F)(F)F)c2C)c2cc(P3(=O)CCCC3)ccc2n1 [Example 104, 1-[2-methyl-4-{{(1R)-1-[2-methyl-3-(trifluoromethyl)phenyl]ethyl}amino)quinazolin-6-yl]-1lambda^5-phospholan-1-one]
